{"source": "patent US20090156609A1", "about": "“TREATMENT OF POST-TRAUMATIC STRESS DISORDER WITH TETRAHYDROINDOLONE ARYLPIPERZAINE COMPOUNDS” (priority 2007, published 2009)", "key": {"[1]": {"tested_on": "C57/BL6 male mice", "assay": "Contextual fear conditioning in an open field model", "type": "in vivo", "settings": "3.0 mg/kg subcutaneously for 10 consecutive days, tested day 16 after 5 day wash out", "experimental": "Response to the development of contextual fear conditioning in an open field model, a model for PTSD, was evaluated in C57/BL6 male mice using the Kinder Scientific MotorMonitor System (Version 3.11, Kinder Scientific, Poway, Calif.). On Day 1 (Trauma Induction Day), animals were pretreated with compound 30 minutes prior to trauma induction and placed in a cage with a shock-grid floor. Locomotor activity was evaluated by an automated open field system with infrared photo-beams. The mice were placed in the center of the cage and the following variables of motor activity were recorded: locomotor activity, fine movement, and rearing. Animals were placed in the chamber for a total of 300 seconds. After 230 seconds, a 10 second, 2.0 mA electric footshock was administered. Mice remained in the chamber for an additional minute. Mice were then injected subcutaneously for 10 consecutive days (starting 24 hours post trauma induction) with either Compound A (3.0 mg/kg) or vehicle. On day 16, following a 5 day wash out period, mice were exposed to the traumatic environment without shock for 5 minutes. Total ambulatory activity was compared between Day 1 and Day 16."}, "[2]": {"tested_on": "C-57 mice", "assay": "Conditioned avoidance response (CAR) model", "type": "in vivo", "text": "The Condition Avoidance Responding (CAR, active avoidance) model is a measure of cognitive and attention impairment. It evaluates the disruption of avoidance (increased latency) without disruption of escape (extrapyramidal motor function).\nThe training of C-57 mice consists of 20 trials with variable inter-trial intervals (trained to 80% Avoidance Criteria). After a one-minute acclimation period, the house light and an acoustic 90 decibel tone (conditioned stimuli) are presented. A response (crossing to dark compartment) within 5 seconds ends the trial and trial is recorded as avoidance response (CAR). […] To avoid shock, animals learn to move from the lighted side of the − chamber to the dark side when the cue is presented (avoidance) or moved when the shock is administered (escape). Compounds that disrupt cognition in the CAR model can be excluded from candidate consideration.\n(§1) The present compounds were tested in the conditioned avoidance response (CAR) model and in the Spontaneous Activity model described above."}, "[3]": {"tested_on": "mice", "assay": "Spontaneous Activity model (locomotor activity)", "type": "in vivo", "text": "Ambulatory and non-ambulatory activity can be used to test spontaneous and drug-induced motor activity. The test can be used to profile the potential for a drug to induce hyperactivity or sedation.\nIn this model, Kinder Scientific photobeam activity monitors are used to record the ambulatory and non-ambulatory motor activity. The monitors track the photobeam breaks made by the animal that are used to calculate the number of ambulatory and fine (non-ambulatory) motor movements. A drug-induced increase in activity can indicate the potential for an adverse event such as hyperactivity. A drug-induced decrease in response can indicate the potential for an adverse event such as sedation. Doses at which no significant change in activity are recorded, and more preferably at which no change in activity are recorded, can be selected for further evaluation.\nas §1"}, "[4]": {"tested_on": "C57/BL6 male mice", "assay": "Contextual fear conditioning in a passive avoidance model", "type": "in vivo", "experimental": "The passive avoidance model is an example of a fear conditioning behavior. To perform this test, animals were trained and tested in a Kinder Scientific avoidance system consisting of a shuttle box with a shock grid floor. On day one, mice were introduced to the system by being allowed to move freely between a darkened side and a lighted side of the shuttle box for 3 minutes after a 1 minute acclimation in the dark. Day two (24 hours later) was similar to the first day except that animals received a 1.0 mA foot shock after crossing to the dark compartment. Vehicle or test compounds are administered subcutaneously 30 minutes prior to this training day. Twenty four hours after the training day, animals were put back in the shuttle box and after a minute acclimation period in the dark, the latency to cross from the lighted to the dark compartment (now with the shock off) was recorded.\nResponse to the development of contextual fear conditioning in an open field model was evaluated in C57/BL6 male mice using an avoidance shuttle chamber (Kinder Scientific, Poway, Calif.). On Day 1, mice were allowed to run through the shuttle box for 3 minutes in order to acclimate them to it. One side was light and the other was dark. One Day 2, animals were dosed subcutaneously […] prior to training. […] The latency to cross to the dark side was recorded, with a 3 minute maximum testing duration."}, "[5]": {"assay": "Neuromuscular coordination (rotarod)", "set-up": "species or system mice", "settings": "male, Swiss Webster (CFW), mouse, in vivo, sc; subcutaneous administration, tested 30 minutes after dosing; read-out: ED50 (ability to remain on the rotarod)", "experimental": "This model can be used to determine the dose of a compound or composition at which unwanted side effects (muscle tone/motor coordination deficits) occur. Animals (C57 Mice) are placed on a rotarod treadmill (model V EE/85, Columbus Instruments, Columbus, Ohio) accelerating from 1 to 80 revolutions/4 minutes. All mice are given two control trials at least 12 hours before oral administration evaluation of compounds. Mice are tested on the rotarod 30 minutes after administration of compounds. The number of seconds each mouse remained on the rotarod is recorded.\nDoses at which the coordination of an animal is decreased or at which its motor function is altered, such that the ability of the animal to remain on the rotarod is reduced, are determined. Doses below this are selected for further evaluation.\nMale Swiss Webster (CFW) mice were placed on a rotarod (model V EE/85, Columbus Instruments, Columbus, Ohio) accelerating from 1 to 80 revolutions/4 minutes. All mice were given two control trials at least 12 hours before administration of the present compounds for evaluation. Mice were tested on the rotarod 30 minutes after subcutaneous administration of compounds. The number of seconds each mouse remained on the rotarod was recorded. Compounds that decreased coordination or altered motor function reduced the ability of the animal to remain on the rotarod."}, "[6]": {"settings": "subcutaneous, doses of up to 10 mg/kg"}}, "data": [{"smiles": "O=C1CCCc2c1ccn2CCN1CCN(c2cccc(Cl)c2)CC1", "note": "[Compound A, 1-{2-[4-(3-Chlorophenyl)piperazin-1-yl]ethyl}-1,5,6,7-tetrahydroindol-4-one]", "values": [{"measurement": "suppressed basic movements compared to vehicle treated animals (FIG. 2)", "setting": "[1]", "result": "displayed a reduction in suppressed basic movements"}, {"measurement": "minimum effective dose, Conditioned Avoidance Response", "setting": "[2]; models unwanted side effects", "result": ">10", "unit": "mg/kg"}, {"measurement": "effect in the CAR model compared to vehicle treated mice", "setting": "[2]; [6]", "result": "did not produce any effect"}, {"measurement": "minimum effective dose, Locomotor Activity", "setting": "[3]; models unwanted side effects", "result": ">10", "unit": "mg/kg"}, {"measurement": "effect in the Spontaneous Activity model compared to vehicle treated mice", "setting": "[3]; [6]", "result": "did not produce any effect"}, {"measurement": "latency to cross over to the dark side compared to vehicle (FIG. 3)", "setting": "[4]; dosed subcutaneously 20 minutes prior to training, tested 24 hours later", "result": "showed a reduction in latency to cross over to the dark side"}, {"measurement": "duration of the improvement in latency", "setting": "[4]; testing on Days 3-5 post-shock administration", "result": "three consecutive days of testing"}, {"measurement": "ED50 at 30 min", "setting": "[5]", "result": 23, "unit": "mg/kg"}]}]}
